The values below are quoted from earlier work in US20100143470A1, “CONTROLLED RELEASE PHARMACEUTICAL COMPOSITION CONTAINING THIAZIDES AND ANGIOTENSIN-II-RECEPTOR BLOCKERS” (HANALL PHARMACEUTICAL COMPANY, LTD, priority 2006, published 2010).

Structures are written as SMILES.

The conditions of series [1]: orally administered for hypertension therapy.

`CCCCc1nc(Cl)c(CO)n1Cc1ccc(-c2ccccc2-c2nn[nH]n2)cc1` [losartan]: the “time to reach the highest blood concentration” value (after absorption from the small intestine) is not above 1 h. In addition, the blood elimination rate (in vivo) is 600 mL/min.

For `NS(=O)(=O)c1cc2c(cc1Cl)NCNS2(=O)=O` [Hydrochlorothiazide, 6-chloro-3,4-dihydro-2H-1,2,4-benzothiadiazine-7-sulfonamide-1,1-dioxide], where the note is “in vivo”, the blood half-time is 5.6 to 14.8 h. Also, the “diuretic effect is sustained” value in series [1] is 6 to 12 h.
